Literature values in patent publication US6607711B2, “Mouth hygienic composition for the treatment of halitosis” (priority 1997, dated 2003).

Details: amount in grams of the compound which can be dissolved per gram solvent (H2O)

## [Cl-].[Cl-].[Zn+2] [Zinc chloride]
  Solubility (g/g H2O): 4.3 g/g H2O
